According to the supplement of paper PMC10307832:

Columns and labels:
Experiment in all cases: relative viability (nuclei count vs DMSO), 5 days (fraction); higher = more cells survive
XMD8-85 + Lapatinib = compound: CN1CCN(CC1)C2=CC(=C(C=C2)NC3=NC=C4C(=N3)N(C5=CC=CC=C5C(=O)N4C)C)OC [XMD8-85] + CS(=O)(=O)CCNCc1ccc(-c2ccc3ncnc(Nc4ccc(OCc5cccc(F)c5)c(Cl)c4)c3c2)o1 [Lapatinib] (partner 2 µM)
How it was run: (§1)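 One day after seeding in 1536-well plates, lung cancer cell lines were dosed by pin tool. Dosing was either single-drug or a fixed anchor-drug dose plus five library-drug doses (not always all listed) in √10 steps. After 5 days, nuclei were stained in one fix-and-stain step and counted on 4× images, and relative viability is the nuclei count of treated wells over that of vehicle wells, given as the median of duplicate plates.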

4EGI-1 + OSI-027 = compound: O=C(O)C(Cc1ccccc1[N+](=O)[O-])=NNc1nc(-c2ccc(Cl)c(Cl)c2)cs1 (mixture of isomers) [4EGI-1] + COc1cccc2cc(-c3nc([C@H]4CC[C@H](C(=O)O)CC4)n4ncnc(N)c34)[nH]c12 [OSI-027] (partner 0.5 µM)
How it was run: as §1

XMD8-85 + Foretinib = compound: CN1CCN(CC1)C2=CC(=C(C=C2)NC3=NC=C4C(=N3)N(C5=CC=CC=C5C(=O)N4C)C)OC [XMD8-85] + COc1cc2c(Oc3ccc(NC(=O)C4(C(=O)Nc5ccc(F)cc5)CC4)cc3F)ccnc2cc1OCCCN1CCOCC1 [Foretinib] (partner 0.25 µM)
How it was run: as §1

4EGI-1 + AZD7762 = compound: O=C(O)C(Cc1ccccc1[N+](=O)[O-])=NNc1nc(-c2ccc(Cl)c(Cl)c2)cs1 (mixture of isomers) [4EGI-1] + NC(=O)Nc1cc(-c2cccc(F)c2)sc1C(=O)N[C@H]1CCCNC1 [AZD7762] (partner 0.2 µM)
How it was run: as §1

Cell Line | relative viability (XMD8-85 + Lapatinib; first compound 0.08 µM) | relative viability (XMD8-85 + Lapatinib; first compound 0.253 µM) | relative viability (XMD8-85 + Lapatinib; first compound 0.8 µM) | relative viability (XMD8-85 + Lapatinib; first compound 2.53 µM) | relative viability (XMD8-85 + Lapatinib; first compound 8 µM) | relative viability (4EGI-1 + OSI-027; first compound 0.5 µM) | relative viability (4EGI-1 + OSI-027; first compound 5 µM) | relative viability (4EGI-1 + OSI-027; first compound 15.81 µM) | relative viability (4EGI-1 + OSI-027; first compound 50 µM) | relative viability (XMD8-85 + Foretinib; first compound 0.08 µM) | relative viability (XMD8-85 + Foretinib; first compound 0.253 µM) | relative viability (XMD8-85 + Foretinib; first compound 0.8 µM) | relative viability (XMD8-85 + Foretinib; first compound 2.53 µM) | relative viability (XMD8-85 + Foretinib; first compound 8 µM) | relative viability (4EGI-1 + AZD7762; first compound 0.5 µM) | relative viability (4EGI-1 + AZD7762; first compound 5 µM) | relative viability (4EGI-1 + AZD7762; first compound 15.81 µM) | relative viability (4EGI-1 + AZD7762; first compound 50 µM) | relative viability (4EGI-1 + OSI-027; first compound 1.581 µM) | relative viability (4EGI-1 + AZD7762; first compound 1.581 µM)
NCI-H460 | 0.551 | 0.84 | 1.27 | 1.29 | 0.406 | 0.684 | 0.668 | 0.3 | 0.0347 | 1.07 | 1.09 | 1.05 | 0.948 | 0.78 | 0.572 | 0.705 | 0.24 | 0.302 |  | 
HCC-366 | 0.94 | 1.12 | 1.09 | 0.994 | 1.06 | 0.922 | 1.13 | 0.669 | 0.277 | 0.991 | 1.04 | 0.988 | 0.937 | 0.748 | 0.33 | 0.293 | 0.174 | 0.0904 | 0.742 | 0.23
NCI-H1755 | 0.943 | 1.1 | 1.05 | 1.17 | 0.996 | 0.791 | 0.693 | 0.713 | 0.487 | 0.873 | 0.921 | 0.88 | 0.97 | 0.783 | 0.441 | 0.457 | 0.344 | 0.252 | 0.663 | 0.411
NCI-H2087 | 1.01 | 1.08 | 1.05 | 1.12 | 0.974 | 0.693 | 0.656 | 0.438 | 0.203 | 1.34 | 1.11 | 1.32 | 1.15 | 0.682 | 1.42 | 1.34 | 1.06 | 0.391 | 0.523 | 1.48
CAL-12T | 0.626 |  | 0.679 | 0.678 | 0.604 | 0.822 | 0.755 | 0.522 | 0.21 | 1.18 | 1.17 | 1.24 | 1.06 | 0.346 | 0.643 | 0.649 | 0.518 | 0.366 | 0.413 | 
NCI-H1355 | 0.956 | 1.03 | 1.01 | 1.08 | 0.875 | 0.397 | 0.384 | 0.291 | 0.264 | 1.02 | 1.01 | 0.977 | 0.878 | 0.811 | 0.865 | 0.801 | 0.769 | 0.27 | 0.354 | 0.69
NCI-H2170 | 0.277 | 0.302 | 0.253 | 0.256 | 0.249 | 0.785 | 0.713 | 0.558 | 0.391 | 1.04 | 1.01 | 0.985 | 1.02 | 0.965 | 0.923 | 1.03 | 0.697 | 0.244 | 0.63 | 0.806
LK-2 | 0.691 | 0.994 | 0.771 | 0.552 | 0.653 | 0.196 | 0.201 | 0.182 | 0.178 |  | 1.05 | 1.01 | 0.554 | 0.389 | 0.543 | 0.451 | 0.344 | 0.177 |  | 
PC-14 | 0.32 | 0.398 | 0.276 | 0.38 | 0.268 | 1.21 | 1.15 | 0.14 | 0.0614 | 0.953 | 0.826 | 0.881 | 1.03 | 0.851 | 0.342 | 0.367 | 0.117 | 0.0594 |  | 
LXF-289 | 0.887 | 0.855 | 0.892 | 0.903 | 0.818 | 0.825 | 0.758 | 0.756 | 0.519 | 0.887 | 0.997 | 0.993 | 0.977 | 0.812 | 1.05 | 1.06 | 1.04 | 0.545 | 0.809 | 1.1
NCI-H23 | 0.949 | 1.05 | 1.09 | 1.08 | 0.969 | 0.612 | 0.614 | 0.453 | 0.417 | 1.08 | 0.778 | 1.08 | 0.77 | 0.866 | 0.372 | 0.27 | 0.23 | 0.192 |  | 
NCI-H2405 | 1.04 | 1.18 | 1.13 | 1.1 | 0.636 | 0.679 | 0.677 | 0.698 | 0.693 | 1.07 | 1.08 | 1.07 | 1.04 | 0.984 | 0.746 | 0.851 | 0.692 | 0.285 | 0.557 | 
RERF-LC-KJ | 0.871 | 0.795 | 0.905 | 0.989 | 0.769 | 0.665 | 0.529 | 0.413 | 0.296 | 0.84 | 0.762 | 0.877 | 0.877 | 0.849 | 0.984 | 1.11 | 0.669 | 0.604 |  | 0.605
HCC-827 | 0.185 | 0.192 | 0.175 | 0.195 | 0.193 | 0.888 | 0.796 |  | 0.719 | 1.03 | 1.1 | 0.948 | 1.13 | 1.11 | 0.255 | 0.211 |  | 0.139 | 0.629 | 0.217
ABC-1 | 1.32 | 1.18 | 0.942 | 1.21 | 1.11 | 0.642 | 0.455 | 0.313 | 0.218 | 0.871 | 0.9 | 1.41 | 0.947 | 0.578 | 0.758 | 0.774 | 0.506 | 0.516 | 0.357 | 
NCI-H358 | 0.438 | 0.52 | 0.455 | 0.486 | 0.405 | 0.778 | 1.08 | 0.391 | 0.106 | 0.656 | 0.774 | 0.84 | 0.673 | 0.422 | 0.632 | 0.582 | 0.275 | 0.218 | 0.624 | 
NCI-H650 | 0.867 | 0.858 | 1.04 | 0.876 |  | 0.6 | 0.565 | 0.5 | 0.443 | 1.05 | 0.997 | 0.947 | 1.04 | 0.685 | 1.09 | 0.978 | 0.912 | 0.318 |  | 
NCI-H1651 | 0.764 | 0.842 | 0.96 | 0.977 | 0.555 | 0.845 | 0.693 | 0.664 | 0.463 | 0.857 | 0.769 | 0.712 | 0.799 | 0.631 | 0.519 | 0.521 | 0.31 | 0.195 | 0.565 | 0.43
H3255 | 0.26 | 0.237 | 0.233 | 0.243 | 0.167 | 0.655 | 0.611 | 0.448 | 0.578 | 1.03 | 0.917 | 0.892 | 0.931 | 0.627 | 1.02 | 0.981 | 0.554 | 0.53 | 0.564 | 0.793
NCI-H1975 | 0.897 | 0.832 | 0.886 | 1.1 | 0.441 | 0.837 | 0.792 | 0.74 | 0.391 | 1.05 | 0.925 | 0.917 | 0.779 | 0.561 | 0.837 | 0.717 | 0.67 | 0.557 | 0.665 | 0.539
NCI-H1793 | 0.845 | 0.826 | 0.857 | 0.781 | 0.814 | 0.331 | 0.355 | 0.247 | 0.134 |  | 0.668 | 0.681 | 0.783 | 0.594 | 0.766 | 0.809 | 0.276 | 0.218 | 0.287 | 0.41
BEN | 0.86 |  | 0.571 | 0.487 | 0.334 | 0.328 | 0.324 | 0.317 | 0.26 | 0.729 | 0.543 | 0.509 | 0.438 | 0.304 | 0.76 | 0.689 | 0.593 | 0.382 | 0.281 | 0.657
LC-2-ad | 1.03 | 0.976 | 0.984 | 1 | 0.702 | 0.873 | 0.894 | 0.386 | 0.234 | 0.866 | 0.976 | 0.995 | 0.785 | 0.607 | 0.855 | 0.917 | 0.3 | 0.208 |  | 0.866
NCI-H2085 | 0.791 | 0.778 | 0.815 | 0.719 | 0.566 | 0.837 | 0.704 | 0.378 | 0.428 | 0.902 | 0.854 | 0.823 | 0.751 | 0.563 | 1.1 | 0.969 | 0.736 | 0.655 | 0.777 | 1.02
